Measurements from patent US20090053138A1, “Stabilized Aptamers to Platelet Derived Growth Factor and their Use as Oncology Therapeutics” (priority 2002, published 2009).
Where two headings read alike, the source gives them in different places. {PEG40k} = 40 kDa polyethylene glycol; [invdT] = inverted (3'-3') thymidine; [HEG] = hexaethylene glycol spacer

How the values were obtained:
PDGF = test: PDGF-driven Elk Luciferase reporter gene assay; assay type: cell-based; conditions: PDGF 50 ng/ml, 3T3 cells
Method: 10,000 3T3 cells/well were plated in DMEM/10% FBS in a 96 well plate. They were transfected using FuGene (Roche, Indianapolis, Ind.) at 3:1 ratio with 5 ng of ELK-1 (Stratagene, La Jolla, Calif.) and 20 ng of pFR-Luciferase plasmids (Stratagene, La Jolla, Calif.). When PDGF is added at a final concentration of 50 ng/ml to 3T3 cells, an increase in the Luciferase signal can be observed which corresponds to the effect of the mitogen on the reporter gene. Steady Glo Luciferase assay (Promega, Madison, Wis.) was used to detect luciferase. […] (FIG. 17.)

[1] = mouse, in vivo, 10 mg/kg
From the text: The pharmacokinetic (PK) data shown in FIG. 12A was subjected to non-compartmental analysis (NCA) using the industry-standard software package WinNonLin™ v.4.0 (Pharsight Corp., Mountain View, Calif.). […] The pharmacokinetic (PK) data shown in FIG. 12B was subjected to noncompartmental analysis (NCA) using the industry-standard software package WinNonLin™ v.4.0 (Pharsight Corp., Mountain View, Calif.).
The pharmacokinetic (PK) data shown in FIG. 12B was subjected to noncompartmental analysis (NCA) using the industry-standard software package WinNonLin™ v.4.0 (Pharsight Corp., Mountain View, Calif.).

PDGF BB [2] = target: T1, PDGF BB (Homo sapiens, UniProt P01127); test: Cell migration assay, RPE cells; assay type: cell-based; set-up: purchased PeproTech, Rocky Hill, N.J
T1 sequence (P01127 82-190 limits assumed): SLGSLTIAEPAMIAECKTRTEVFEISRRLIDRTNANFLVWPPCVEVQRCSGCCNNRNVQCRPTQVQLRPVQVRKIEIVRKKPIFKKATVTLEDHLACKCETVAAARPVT
Method: PDGF is a strong mitogen as well as a chemoattractant. […] In the cell migration assay 80,000 cells 3T3 rat fibroblasts (ATCC, Manassas, Va.) or RPE (retinal pigmented epithelial) cells (ATCC, Manassas, Va.) were plated per well into a 24 well plate with 8 micron filters (BD Biosciences, Discovery Labware, Bedford, Mass.). 0.5 ml DMEM/0.2% FCS was added to the top chamber and 0.8 ml DMEM/0.2% FCS was added to the bottom chamber. The system was equilibrated by incubating for 4 hours at 37 degrees celsius. Human PDGF-BB (PeproTech, Rocky Hill, N.J.) (for RPE cells) or rat PDGF-BB (PeproTech) (for 3T3 cells) was added to the bottom chamber (0 ng/ml-100 ng/ml final concentration). […] Cells were scraped off on the top of filter with a Q-tip. The cells that migrated to the bottom of the filter were fixed with a mixture of cold 50% Methanol/50% Acetone for 3 minutes.
Following incubation filters were washed with 1×PBS and stained with Giemsa Stain (Matheson Coleman and Bell) for 1-2 hours and migration was visualized by taking pictures on a Zeiss Axiovert 200M microscope.
The 96 well assay starts by bringing plates and reagents to room temperature. 150 ul of DMEM/0.2% FBS was added with or without chemoattractant to the wells of the feeder tray.
Following incubation, the migration chamber plate was removed and the non-migratory cells were discarded. The number of migratory cells was quantitated according to manufacturer's recommended instructions. In brief, media from the top side was removed by flipping out the remaining cell suspension, and was placed onto a new feeder tray that contains 150 ul of pre-warmed Cell Detachment Solution. This mixture was incubated for 30 minutes at 37 degrees celsius. CyQuant GR Dye 1:75 was diluted with 4× Lysis Buffer and 50 ul of the Lysis Buffer/Dye Solution was added to each well containing 150 ul of the solution containing migratory cells.

Lewis lung carcinoma = test: Mouse Lewis lung carcinoma model; conditions: scrambled aptamer 50 mg/kg
From the text: A 1 mm^3 piece of Lewis lung carcinoma was implanted under the dorsal skin of wild-type C57BL/6 mice and allowed to grow. […] At the end of the seven day period, the mice were anesthetized, and the following tissues were fixed by vascular perfusion with 1% paraformaldehyde, removed and frozen for cryotstat sectioning: tumor (Lewis lung carcinoma), pancreas, liver, kidney, trachea, spleen, jejunum, and thyroid tissue. The resulting slides were stained with antibodies against various markers as described below.
Sections of tumors were cut (80 μm) and stained with either anti-CD31 or anti-α smooth muscle actin (“α-SMA”) antibodies. Digital fluorescence microscopic images were obtained for area density measurements by using a CoolCam low-light 3-chip RGB CCD camera. […] In addition, the tumors were imaged by confocal microscopy. […]
Sections of tumors were cut (80 μm) and stained with either anti-CD31 or anti-type IV collagen antibodies. Digital fluorescence microscopic images were obtained for area density measurements by using a CoolCam camera. […]
Pericyte expression was measured using the Cool Cam and confocal images were also taken.
The extent of pericyte colocalization with endothelial cells was then measured on digital Cool Cam images.
The extent of pericyte colocalization with endothelial cells was measured on digital CoolCam images. […]

PDGF BB [3] = target: T1, PDGF BB; test: Competition binding assay, PDGF-BB; set-up: purchased PeproTech, Rocky Hill, N.J; conditions: scrambled variant
Method: Binding reactions were carried out in phosphate-buffered saline (Cellgro, Herndon, Va.) containing 0.2 mg/mL bovine serum albumin (NEB) and 0.02 mg/mL tRNA (Sigma, St. Louis, Mo.). The reactions were equilibrated for a period of 15-30 minutes at room temperature, then filtered through a sandwich of nitrocellulose (Protran membrane, Perkin-Elmer, Boston, Mass.) and nylon (Hybond membrane, Amersham, Piscataway, N.J.) membranes to separate target bound aptamer from free aptamer.
Next, a study was done to determine whether ARC126 cross reacted with PDGF-BB of species other than human. Competition binding assays were set up by dot blot analysis, as previously described, using human, rat, and mouse PDGF-BB (PeproTech, Rocky Hill, N.J.).
The competitive binding assay previously described was used to determine the in vitro binding affinity and selectivity of ARC594 for different PDGF isoforms. Different concentrations of unlabeled, competitor aptamer were titrated in separate reactions against a fixed (<0.1 nM) amount of ^32P-radiolabeled ARC594 in buffer containing a fixed amount (0.1 nM) of the aptamer's cognate target (PDGF-BB; PeproTech). UnPEGylated version of ARC594 was radiolabeled at the 5′ terminus by incubation with γ-^32P-ATP (ICN) and polynucleotide kinase (NEB). Binding reactions were carried out in phosphate-buffered saline (Cellgro) containing 0.2 mg/mL bovine serum albumin (NEB) and 0.02 mg/mL tRNA (Sigma). The reactions were equilibrated for a period of 15-30 minutes at room temperature, then filtered through a sandwich of nitrocellulose (Protran membrane, Perkin-Elmer) and nylon (Hybond membrane, Amersham) membranes to separate target bound aptamer from free aptamer. […] The data was expressed as the ratio of the counts per minute (CPM) of radioactivity due to ^32P-ARC594 bound to PDGF BB on the nitrocellulose membrane (CPMnitrocellulose or CPMnc) over the total CPM (CPMtotal=CPMnitrocellulose+CPMnylon).

[4] = 100 nM aptamer, 5 nM PDGF BB, 24 well format

5′-[40 K PEG]-(SEQ ID NO:1)-HEG-(SEQ ID NO:2)-HEG-(SEQ ID NO:3)-3′-dT-3′ (chain 1 CAGGCUACG; chain 2 CGTAGAGCAUCA; chain 3 TGATCCUG; piece 1: 2'-fluoro at 6, 8, 2'-O-methyl at 9, 5' {PEG40k}, 3' [HEG], other sugars and backbone not given here; piece 2: 2'-O-methyl at 5, 7, 12, 2'-fluoro at 10, 11, 3' [HEG], other sugars and backbone not given here; piece 3: 2'-fluoro at 5, 6, 7, 2'-O-methyl at 8, 3' [invdT], other sugars and backbone not given here) [ARC127]
IC50 (PDGF): ≤ 2 nM
concentration reducing the Luciferase signal to no mitogen levels (PDGF): 3 nM
Cmax ([1]; ip): 12.8 µM
Vz ([1]; ip): 0.078 L/kg
bioavailability, F ([1]; ip): 0.625
t1/2 ([1]; ip): 7.856 h
Cmax ([1]; iv): 29.7 µM
Vz ([1]; iv): 0.053 L/kg
bioavailability, F ([1]; iv): 1.000
Cmax ([1]; sc): 3.18 µM
Vz ([1]; sc): 0.238 L/kg
bioavailability, F ([1]; sc): 0.240
t1/2 ([1]; sc): 9.176 h
migration of RPE cells (PDGF BB [2]; [4]): inhibits the effects of 5 nM PDGF-BB
migration of RPE cells (PDGF BB [2]; 96 well format): reduced migration levels to background

5′-(SEQ ID NO.4)-HEG-(SEQ ID NO:5)-HEG-(SEQ ID NO:6)-3 (chain 1 CAGCGUACG; chain 2 CGTACCGATUCA; chain 3 TGAAGCUG; HEG spacers joining pieces; synthetic aptamer; modified_base (4)..(4) cytidine is 2′-fluoro; modified_base (5)..(5) gm; modified_base (6)..(6) uridine is 2′-fluoro; modified_base (8)..(8) cytidine is 2′-fluoro; modified_base (9)..(9) gm; modified_base (7)..(7) gm; modified_base (10)..(10) uridine is 2′-fluoro; modified_base (11)..(11) cytidine is 2′-fluoro; modified_base (12)..(12) adenosine is 2′-O-Methyl; modified_base (6)..(6) cytidine is 2′-fluoro; modified_base (7)..(7) uridine is 2′-fluoro; modified_base (8)..(8) gm) [ARC128, reference compound]
migration of RPE cells (PDGF BB [2]; [4]): no activity
migration of RPE cells (PDGF BB [2]; 96 well format): did not affect migration
effect on tumor vasculature (confocal images) (Lewis lung carcinoma): did not affect the tumor vasculature
binding to PDGF (PDGF BB [3]): no longer binds PDGF
